For 5 molecules, IC50 results are on record in ChEMBL document CHEMBL4041480, “Natural and synthetic bioactive inhibitors of glycogen synthase kinase” (Eur J Med Chem, 2017).

The target in experiment [1] is T1, Glycogen synthase kinase-3 beta (Homo sapiens, UniProt P49841).
Experiment [2] has as its target T1, Glycogen synthase kinase-3 beta. The source holds these as a separate data set.
Experiment [3] shares this target. This is another data set of the same source.
Description: Inhibition of full length recombinant human His-tagged GSK3beta expressed in baculovirus expression system using Ser/Thr 9 peptide substrate by Z'-LYTE assay
Experiment [4] shares this target. The source holds these as a separate data set.
Description: Inhibition of GST-tagged GSK3beta (unknown origin) expressed in Escherichia coli BL21-CodonPlus (DE3) by Z'-LYTE assay

T1 sequence (P49841 whole entry): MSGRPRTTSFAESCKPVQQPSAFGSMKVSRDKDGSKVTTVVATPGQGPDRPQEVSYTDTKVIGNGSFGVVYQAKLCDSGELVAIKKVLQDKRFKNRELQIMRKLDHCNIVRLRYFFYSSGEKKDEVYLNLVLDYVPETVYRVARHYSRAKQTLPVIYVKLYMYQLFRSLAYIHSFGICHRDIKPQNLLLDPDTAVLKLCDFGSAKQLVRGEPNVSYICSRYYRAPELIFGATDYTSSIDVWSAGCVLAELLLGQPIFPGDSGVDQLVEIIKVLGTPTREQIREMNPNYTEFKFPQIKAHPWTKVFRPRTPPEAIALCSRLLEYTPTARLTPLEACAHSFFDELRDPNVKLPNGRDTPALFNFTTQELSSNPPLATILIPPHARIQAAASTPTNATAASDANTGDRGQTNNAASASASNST

As for `[Zn]`, in experiment [1], half-maximal inhibition (IC50) required 15000 nM. On the same count and under the same terms, with `N=C1N[C@H]2c3c([nH]c(Br)c3Br)C(=O)C3CCC[C@@]32N1` (stereo not given in full) the figure was 3000 nM. Consider `O=c1[nH]nc2c(NCCc3ccncc3)cc(Cl)cn12`, for which the IC50 in experiment [2] turned out to be 111 nM.

In experiment [3], `O=C1NC(=O)C(c2cn(CCC3N=CC=N3)c3ccccc23)=C1c1noc2ccccc12` registered an IC50 of 0.73 nM. In experiment [4], `Cn1cc(C2=C(c3nn(CCCN4CCOCC4)c4ncccc34)C(=O)NC2=O)c2ccccc21` showed an IC50 of 340 nM.
